The values that follow come from US4185106A, “Pyridones as antidandruff agents” (Hoechst Aktiengesellschaft, priority 1972, dated 1980).

One data set can be described thus: in vivo. An excerpt: [formula] a=ethanolamine salt of 1-hydroxy-4,6-dimethyl-2-pyridone b=zinc salt of 1-hydroxy-4,6-dimethyl-2-pyridone c=zinc salt of 1-hydroxy-4-methyl-6-(2,4,4-trimethyl-pentyl)2-pyridone d=ethanolamine salt of 1-hydroxy-4-methyl-6-cyclohexyl-2-pyridone, administered in starch mucilage e=zinc salt of 1-hydroxy-4-methyl-6-cyclohexyl-2-pyridoneand [formula]

The conditions of data set [1]: prior art compounds, cited from earlier work.
Another data set deals with skin. Conditions: J. Soc. Cosmet. Chem. 23 (1972), pages 100, 112; cited from earlier work.
The next data set concerns dandruff. As to conditions: half-side washing repeated over several weeks at determined intervals.

Where a name gives a salt, the structure may show the parent alone. A value given as a limit tells only on which side of the number the result lay.

Usually LD50 stands for the dose at which mortality reaches 50%. The low end stands for greater toxicity, the high end for lower toxicity. In turn, `Cc1cc(C)n(O)c(=O)c1` [a, ethanolamine salt of 1-hydroxy-4,6-dimethyl-2-pyridone] yielded an LD50 in the data set “in vivo” (in vivo) greater than 4480 mg/kg.
Turning to `Cc1cc(C)n([O-])c(=O)c1.Cc1cc(C)n([O-])c(=O)c1.[Zn+2]` [b, zinc salt of 1-hydroxy-4,6-dimethyl-2-pyridone], the median lethal dose (LD50) result in “in vivo” (species and route not given) is listed as “more than 6400 mg/kg”.
`Cc1cc(C2CCCCC2)n(O)c(=O)c1` [d, ethanolamine salt of 1-hydroxy-4-methyl-6-cyclohexyl-2-pyridone]: the LD50 in “in vivo” (in vivo) was determined as 5500 mg/kg.
Regarding `On1ccccc1=S.[Na]` [sodium-1-hydroxy-2-pyridine-thione], the stability to hydrolysis result in data set [1] is “not stable to hydrolysis”. Besides, the dermal toxicity entry in the data set with skin is on record as “considerable dermal toxicity”.
For the molecule `[O-]n1ccccc1=S.[O-]n1ccccc1=S.[Zn+2]` [g, zinc salt of 1-hydroxy-2-pyridine-thione], the LD50 in the data set “in vivo” (species and route not given) is 700 mg/kg. The “removal of dandruff after standardized washing” value in the data set with dandruff is listed as “dandruff still showed in many cases”. In data set [1] (mild oxidizing agents form 2,2'-dithio-bis(pyridine-1-oxide)), the sensitivity to oxidation result is reported as “sensitive to oxidation”.
Consider `Cc1cc(C2CCCCC2)n([O-])c(=O)c1.Cc1cc(C2CCCCC2)n([O-])c(=O)c1.[Zn+2]` [e, zinc salt of 1-hydroxy-4-methyl-6-cyclohexyl-2-pyridone], for which the LD50 result in the data set “in vivo” (species and route not given) is “more than 6400 mg/kg”.
In the case of `Cc1cc(CC(C)CC(C)(C)C)n([O-])c(=O)c1.Cc1cc(CC(C)CC(C)(C)C)n([O-])c(=O)c1.[Zn+2]` (stereo not drawn) [c, zinc salt of 1-hydroxy-4-methyl-6-(2,4,4-trimethyl-pentyl)2-pyridone], in “in vivo” (species and route not given), the LD50 entry is listed as “more than 6400 mg/kg”.
As to `On1ccccc1=S` [1-hydroxy-2-pyridine-thione], in data set [1], the stability to heat result is reported as “sensitive to heat” and the stability to light entry was “not stable to light”.
